# Source: patent US5610161A, “Therapeutic agents” (The Boots Company PLC, priority 1992, dated 1997)
# Counter-ions that a name gives are not always drawn. Like-named read-outs stand apart in the source and are kept apart here.
# How the values were obtained:
# [1] = tested on: reserpine-induced fall in body temperature; test: Test 1: reversal of reserpine-induced hypothermia in mice, oral; type: in vivo, mice (Charles River CD1 strain, male); details: for ED50: Mus musculus, read-out: Test 1 ED50 (dose causing 50% reversal of the reserpine-induced fall in body temperature)
# Procedure: Male mice of the Charles River CD1 strain weighing between 18 and 30 g were separated into groups of five and were supplied with food and water ad libitum. After five hours the body temperature of each mouse was taken orally and the mice were injected intraperitoneally with reserpine (10 mg/kg) in solution in deionised water containing ascorbic acid (50 mg/ml). The amount of liquid injected was 10 ml/kg of body weight. Nine hours after the start of the test food was withdrawn but water was still available ad libitum. Twenty-four hours after the start of the test the temperatures of the mice were taken and the mice were given the test compound orally at a dose volume of 10 ml/kg of body weight. The compound was administered in aqueous solution. Three hours later the temperatures of all the mice were again taken. The percentage reversal of the reserpine-induced fall in body temperature was then calculated by the formula: [formula] The percentage reversal value for each group of five mice was determined at more than one dose rate to enable a value of the dose which causes a 50% reversal (ED50) to be obtained.
# reserpine-induced ptosis = test: Test 2: prevention of reserpine-induced ptosis (eye closure) in rats, oral; type: in vivo, rats (Charles River CD strain, male); details: for ED50: Rattus norvegicus, read-out: Test 2 ED50 (dose causing 50% prevention of the reserpine-induced ptosis)
# Source text: Male rats of the Charles River CD strain weighing between 140 and 180 g were randomly separated into five rats in each cage and supplied with food and water ad libitum. Eighteen hours prior to initiation of the test four of the five rats were marked with a pen such that each rat was individually identifiable; food was then withdrawn. The following morning, two hours before the test, the rats were weighed and a semi-randomised code was used to allocate treatments to rats. The test commenced by orally administering either:
# a) the test compound in solution in deionised water at a dose volume of 10 ml/kg of body weight, followed by immediate intravenous injection of 1 ml/kg of body weight of reserpine (0.75 mg/kg) in solution in deionised water containing 238 mM citric acid, 1.02% v/v Tween 80 and 0.2% v/v benzyl alcohol (treated group);
# b) deionised water at a dose volume of 10 ml/kg of body weight, followed by immediate intravenous injection of 1 ml/kg of body weight of reserpine (0.75 mg/kg) in solution in deionised water containing 238 mM citric acid, 1.02% v/v Tween 80 and 0.2% v/v benzyl alcohol (positive control group); or
# c) deionised water at a dose volume of 10 ml/kg of body weight, followed by immediate intravenous injection of 1 ml/kg of body weight of deionised water containing 238 mM citric acid, 1.02% v/v Tween 80 and 0.2% v/v benzyl alcohol (negative control group).
# The degree of prosis was scored 45 seconds and 75 seconds later using the following observer rating system: 0=eye fully open, 1=eye 1/4 closed, 2=eye 1/2 closed, 3=eye 3/4 closed, 4=eye fully closed. A mean ptosis score was then calculated for all identically treated rats usually comprising a group of eight rats. […] The mean ptosis score for each group of treated rats was determined at more than one dose of test compound to enable a value for the dose (ED50) which causes a 50% prevention of the reserpine-induced ptosis to be obtained.
# [2] = mice, oral, reserpine 10 mg/kg i.p., temperature 3 h after compound
# [3] = rats, oral, reserpine 0.75 mg/kg i.v., ptosis scored 3 h later
Structure (SMILES),ED50 (reserpine-induced ptosis; [3]),"ED50 [1, 2]",further results
"OC1(c2ccc(Cl)cc2)CCCNC12CCCCC2 (centres unmarked) [Example 1, 5-(4-chlorophenyl)-5-hydroxy-1-azaspiro[5.5]undecane]",11.3 mg/kg,,"Test 1 ED50 (dose causing 50% reversal of the reserpine-induced fall in body temperature) [1, 2]: Inactive @ 30"
"OC1(c2cccc(Cl)c2)CCCNC12CCCCC2 (centres unmarked) [Example 2, 5-(3-chlorophenyl)-5-hydroxy-1-azaspiro[5.5]undecane]",8.1 mg/kg,~16 mg/kg,
"OC1(c2ccc(Cl)c(Cl)c2)CCCNC12CCCCC2 (centres unmarked) [Example 3, 5-(3,4-dichlorophenyl)-5-hydroxy-1-azaspiro[5.5]undecane]",7.7 mg/kg,10.7 mg/kg,
"CCN1CCCC(O)(c2ccc(Cl)cc2)C12CCCCC2.Cl (centres unmarked) [Example 4, 5-(4-chlorophenyl)-1-ethyl-5-hydroxy-1-azaspiro[5.5]undecane hydrochloride]",2.2 mg/kg,,"Test 1 ED50 (dose causing 50% reversal of the reserpine-induced fall in body temperature) [1, 2]: Inactive @ 30"
"Clc1ccc(C2=CCCNC23CCCCC3)cc1.O=S(=O)(O)O [Example 5, 5-(4-chlorophenyl)-1-azaspiro[5.5]undec-4-ene sulphate]",,,"ED50 ([1]; po, 3 h): ~20 mg/kg; ED50 (reserpine-induced ptosis; po, 3 h): 7 mg/kg"
"Clc1ccc(C2=CCCNC23CCCCC3)cc1 [Example 6, 5-(4-chlorophenyl)-1-azaspiro[5.5]undec-4-ene 0.5 sulphate, 2.1 hydrate]",2.7 mg/kg,14.1 mg/kg,
"Cl.Clc1ccc(C2=CCCNC23CCCCC3)cc1 [Example 7, 5-(4-chlorophenyl)-1-azaspiro[5.5]undec-4-ene hydrochloride]",1.4 mg/kg,2 mg/kg,
"Cl.Clc1cccc(C2=CCCNC23CCCCC3)c1 [Example 8, 5-(3-chlorophenyl)-1-azaspiro[5.5]undec-4-ene hydrochloride]",,,"ED50 ([1]; po, 3 h): 16.4 mg/kg; ED50 (reserpine-induced ptosis; po, 3 h): 5.1 mg/kg"
"Cl.Clc1ccc(C2=CCCNC23CCCCC3)cc1Cl [Example 9, 5-(3,4-dichlorophenyl)-1-azaspiro[5.5]undec-4-ene hydrochloride]",3.9 mg/kg,~11 mg/kg,
"Fc1ccc(C2=CCCNC23CCCCC3)cc1.O=S(=O)(O)O [Example 10, 5-(4-fluorophenyl)-1-azaspiro[5.5]undec-4-ene sulphate]",,,"ED50 ([1]; po, 3 h): ~18 mg/kg; ED50 (reserpine-induced ptosis; po, 3 h): 8.5 mg/kg"
"Cl.FC(F)(F)c1cccc(C2=CCCNC23CCCCC3)c1 [Example 11, 5-[3-(trifluoromethyl)phenyl]-1-azaspiro[5.5]undec-4-ene hydrochloride]",,~22 mg/kg,Test 2 ED50 (dose causing 50% prevention of the reserpine-induced ptosis) (reserpine-induced ptosis; [3]): Inactive @ 30
"C1=C(c2ccc3ccccc3c2)C2(CCCCC2)NCC1.Cl [Example 12, 5-(2-naphthyl)-1-azaspiro[5.5]undec-4-ene hydrochloride]",11.9 mg/kg,11.9 mg/kg,
"Cl.Oc1ccc(C2=CCCNC23CCCCC3)cc1 [Example 13, 5-(4-hydroxyphenyl)-1-azaspiro[5.5]undec-4-ene hydrochloride]",21.8 mg/kg,,"Test 1 ED50 (dose causing 50% reversal of the reserpine-induced fall in body temperature) [1, 2]: Inactive @ 30"
"CN1CCC=C(c2ccc(Cl)cc2)C12CCCCC2.Cl [Example 14, 5-(4-chlorophenyl)-1-methyl-1-azaspiro[5.5]undec-4-ene hydrochloride]",30 mg/kg,~12 mg/kg,
"Clc1ccc(C2=CCCNC23CCCCC3)cc1.O=C(O)/C=C/C(=O)O [Example 15, 5-(4-chlorophenyl)-1-azaspiro[5.5]undec-4-ene fumarate]",3.8 mg/kg,6.9 mg/kg,
"CS(=O)(=O)O.Clc1ccc(C2=CCCNC23CCCCC3)cc1 [Example 16, 5-(4-chlorophenyl)-1-azaspiro[5.5]undec-4-ene methanesulphonate]",3.3 mg/kg,9.4 mg/kg,
"Clc1ccc(C2=CCCNC23CCCC3)cc1.O=S(=O)(O)O [Example 17, 10-(4-chlorophenyl)-6-azaspiro[4.5]dec-9-ene sulphate]",,,"ED50 ([1]; po, 3 h): ~23 mg/kg; ED50 (reserpine-induced ptosis; po, 3 h): 3.1 mg/kg"
"Cl.Clc1ccc(C2CCCNC23CCCCC3)cc1 (centres unmarked) [Example 18, 5-(4-chlorophenyl)-1-azaspiro[5.5]undecane hydrochloride]",0.5 mg/kg,4.8 mg/kg,
"COc1ccc(C2CCCNC23CCCCC3)cc1.Cl (centres unmarked) [Example 19, 5-(4-methoxyphenyl)-1-azaspiro[5.5]undecane hydrochloride]",5.8 mg/kg,~14 mg/kg,
"CCCN1CCC=C(c2ccc(Cl)cc2)C12CCCCC2 [Example 20, 5-(4-chlorophenyl)-1-propyl-1-azaspiro[5.5]undec-4-enehydrochloride]",3 mg/kg,~26 mg/kg,
"C=CCN1CCC=C(c2ccc(Cl)cc2)C12CCCCC2.O=C(O)/C=C\C(=O)O [Example 21, 1-allyl-5-(4-chlorophenyl)-1-azaspiro[5.5]undec-4-ene maleate]",9.1 mg/kg,,"Test 1 ED50 (dose causing 50% reversal of the reserpine-induced fall in body temperature) [1, 2]: Inactive @ 30"
"COCCN1CCC=C(c2ccc(Cl)cc2)C12CCCCC2 [Example 22, 5-(4-chlorophenyl)-1-(2-methoxyethyl)-1-azaspiro[5.5]undec-4-ene 1.25 hydrochloride]",10.1 mg/kg,~30 mg/kg,
"C1=C(c2ccccc2)C2(CCCCC2)NCC1.Cl [Example 24, 5-phenyl-1-azaspiro[5.5]undec-4-ene hydrochloride]",,~11.5 mg/kg,Test 2 ED50 (dose causing 50% prevention of the reserpine-induced ptosis) (reserpine-induced ptosis; [3]): Inactive @ 30
"C1=C(c2ccc(-c3ccccc3)cc2)C2(CCCCC2)NCC1.Cl [Example 25, 5-(4-biphenylyl)-1-azaspiro[5.5]undec-4-ene hydrochloride]",9.9 mg/kg,,"Test 1 ED50 (dose causing 50% reversal of the reserpine-induced fall in body temperature) [1, 2]: Inactive @ 30"
"Cl.Clc1ccc(C2=CCNC23CCCCC3)cc1 [Example 26, 4-(4-chlorophenyl)-1-azaspiro[4.5]dec-3-ene hydrochloride]",5.6 mg/kg,,"Test 1 ED50 (dose causing 50% reversal of the reserpine-induced fall in body temperature) [1, 2]: Inactive @ 30"
